Laboratory results from patent US8648012B2, “Herbicidal compositions comprising naptalam” (BASF SE, priority 2009, dated 2014).

Columns and labels:
[1] = system: common amaranth (Amaranthus retroflexus AMARE); assay: Example 6: weed control of clopyralid or picloram plus naptalam mixtures; assay type: in vivo; settings: postemergence
Experimental: (§1) Seedlings of common amaranth (Amaranthus retroflexus AMARE) and common lambsquarters (Chenopodium album; CHEAL), each 8 to 10 cm in height, were treated with postemergence applications of either clopyralid at 53.5 g ae/ha, picloram at 5.6 g ae/ha or naptalam at 140 g ae/ha, or the combination of clopyralid and naptalam at 53.5 g ae/ha and 140 g ae/ha, or the combination of picloram and naptalam at 5.6 g ae/ha and 140 g ae/ha, respectively, when they were 8-10 cm in height. All treatment mixtures contained 0.25% (v/v) non-ionic surfactant. […] Percent injury data was collected 10 days after treatment (DAT).

[2] = system: common lambsquarters (Chenopodium album; CHEAL); assay: as above; assay type: in vivo; settings: postemergence
Experimental: as §1

[3] = system: sunflower (helianthus sp. HELSS); assay: Example 8: weed control of clopyralid+naptalam mixtures; assay type: in vivo; settings: postemergence
Experimental: Seedlings of sunflower (helianthus sp. HELSS) were treated with postemergence applications of either clopyralid at 210 g ae/ha or at 105 g ae/ha, or naptalam at 56 g ae/ha, or the combination of clopyralid and naptalam at 210+56 g ae/ha or at 105+56 g ae/ha, respectively, when they were 8-10 cm in height. All treatment mixtures contained 0.25% (v/v) non-ionic surfactant. […] Percent injury data was collected 10 days after treatment (DAT).

[4] = system: Winter wheat (Triticum aestivum, TRZAW); assay: Example 3: preemergence crop selectivity of dicamba plus naptalam; assay type: in vivo; settings: 13 DAT
Experimental: (§2) In all use examples, plants were grown in a greenhouse environment.
(§3) Naptalam was used as a commercial SL formulation containing 240 g/l of naptalam (Alanap-L from Cheminova). Clopyralid was used as a commercial SL formulation containing 360 g/l of clopyralid (Stinger of Dow Agroscience). Picloram was used as a commercial SL formulation containing 240 g/l of picloram (Tordon 22K of Dow Agroscience). A mixture of 2,4-D+MCPP+Dicamba was used as a commercial SL formulation containing 283 g/l of 2,4-D, 63 g/l of MCPP and 25 g/l of Dicamba (Trimec Classic of PBI Gordon Corp.). Dicamba was used as a commercial SL formulation containing 480 g/l of Dicamba (Clarity BASF).
(§4) The evaluation for the plant damage or injury caused by the chemical compositions was carried out using a scale from 0 to 100%, when compared with the untreated control plants. Here, 0 means no damage and 100 means complete destruction of the plants. I50 values were estimated from % injury data at different application rates by non-linear regression of log-logistic dose-response curves.
Winter wheat (Triticum aestivum, TRZAW) seeds were sown into soil, and the following day treated with five different rates of dicamba between 5.6 and 560 g ae/ha. Diflufenzopr (DFFP) or naptalam at rates of 224 g ae/ha was applied either alone or in combination with dicamba treatments. Following application, pots were placed in a completely randomized design with four replications per treatment. Percent injury data was collected 13 DAT.

[5] = system: perennial ryegrass (Lolium perenne, LOLPE); assay: Example 4: postemergence turf selectivity of dicamba plus naptalam; assay type: in vivo; settings: 13 DAT
Experimental: as §2, §3, §4
(§5) Seedlings of tall fescue (Festuca arundinacea, FESAR) or perennial ryegrass (Lolium perenne, LOLPE) were treated with five different rates of dicamba between 28 and 2800 g ae/ha when they were 10-14 cm in height. DFFP or naptalam at rates of 140 g ae/ha were applied either alone or in combination with dicamba treatments. All treatment mixtures contained 0.25% (v/v) non-ionic surfactant plus 1% (w/v) ammonium sulfate. Following treatment, plants were placed in a completely randomized design with four replications per treatment. Percent injury data was collected 13 DAT.

[6] = system: tall fescue (Festuca arundinacea, FESAR); assay: as above; assay type: in vivo; settings: 13 DAT
Experimental: as §2, §3, §4, §5

TRZAW = assay: Example 5: postemergence wheat selectivity of dicamba plus naptalam; assay type: in vivo, Triticum aestivum; settings: 8 DAT
Experimental: as §2, §3, §4
Seedlings of TRZAW were treated with five different rates of dicamba between 14 and 1400 g ae/ha when they were 12-14 cm in height. In addition, DFFP or naptalam at 70 g ae/ha were applied either alone or in combination with dicamba treatments. All treatment mixtures contained 0.25% (v/v) non-ionic surfactant plus 1% (w/v) ammonium sulfate. Following treatment, plants were placed in a completely randomized design with four replications per treatment. Percent injury data was collected 8 DAT.

[7] = system: Palmer amaranth (Amaranthus palmeri; AMAPA); assay: Example 1: postemergence weed control of dicamba plus naptalam mixtures, greenhouse; assay type: in vivo; settings: 10 DAT
Experimental: as §2, §3, §4
(§6) 22 ff. E=X+Y−(X·Y/100) where • X=effect in percent using herbicide A at an application rate a; • Y=effect in percent using herbicide B at an application rate b; • E=expected effect (in %) of A+B at application rates a+b.
(§7) The value E corresponds to the effect (plant damage or injury) which is to be expected if the activity of the individual compounds is just additive. If the observed effect is higher than the value E calculated according to Colby, a synergistic effect is present.
(§8) Seedlings of velvetleaf (Abutilon theophrasti; ABUTH), Palmer amaranth (Amaranthus palmeri; AMAPA), and common lambsquarters (Chenopodium album; CHEAL) were treated with postemergence applications of either dicamba at 140 or 280 g ae/ha, naptalam at 56 g ae/ha, or the combination of dicamba and naptalam at 140 and 56 g ae/ha, respectively, when they were 10-12 cm in height. All treatment mixtures contained 0.25% (v/v) non-ionic surfactant plus 1% (w/v) ammonium sulfate. Plants were placed in a completely randomized design with four replications per treatment. Percent injury data was collected 10 days after treatment (DAT).

[8] = system: common lambsquarters (Chenopodium album; CHEAL); assay: as above; assay type: in vivo; settings: 10 DAT
Experimental: as §2, §3, §4, §6, §7, §8

[9] = system: velvetleaf (Abutilon theophrasti; ABUTH); assay: as above; assay type: in vivo; settings: 10 DAT
Experimental: as §2, §3, §4, §6, §7, §8

ABUTH = settings: naptalam 0 g ae/ha
Experimental: as §2, §3, §4
(§9) Seedlings of ABUTH or CHEAL were treated with five different rates of dicamba between 0.14 and 140 g ae/ha when they were 10-12 cm in height. Naptalam was mixed with dicamba at rates of 0, 28, 35, 47, 70, or 140 g ae/ha to each dose-response series. All treatment mixtures included the addition of 0.25% (v/v) non-ionic surfactant and 1% (w/v) ammonium sulfate. Plants were placed in a completely randomized design with four replications per treatment. Percent injury data was collected 11 DAT and used to estimate the amount of dicamba necessary to obtain 50% injury (I50). […] estimates for solo applications of dicamba (I50 (—NPA)) were compared with I50 estimates for the combined application of dicamba and naptalam (I50 (+NPA)) to determine the relative increase of dicamba activity through the addition of naptalam.

CHEAL = settings: naptalam 0 g ae/ha
Experimental: as §2, §3, §4, §9

[10] = system: sunflower (helianthus sp. HELSS); assay: Example 7: weed control of 2,4-D+MCPP+dicamba+naptalam mixtures; assay type: in vivo; settings: postemergence, naptalam 56 g ae/ha
Experimental: as §2, §3, §4
Plants were placed in a completely randomized design with four replications per treatment. Percent injury data was collected 10 days after treatment (DAT).

[11] = DFFP 140 g ae/ha alone (dicamba 0)
[12] = naptalam 140 g ae/ha alone (dicamba 0)

O=C(O)c1nc(Cl)ccc1Cl [Clopyralid, clopyralid]
Mean % Control (10 DAT) AMARE ([1]; clopyralid 53.5 g ae/ha): 23% | Mean % Control (10 DAT) CHEAL ([2]; clopyralid 53.5 g ae/ha): 25% | Mean % Control (10 DAT) HELSS ([3]; clopyralid 105 g ae/ha): 28% | Mean % Control (10 DAT) HELSS ([3]; clopyralid 210 g ae/ha): 83%

C/C(=N\NC(=O)Nc1cc(F)cc(F)c1)c1ncccc1C(=O)O [DFFP, diflufenzopyr]
TRZAW Mean % Injury ([4]; DFFP 224 g ae/ha alone (dicamba 0)): 61.3% | LOLPE Mean % Injury [5, 11]: 30.0 c % | FESAR Mean % Injury [6, 11]: 38.8 b % | TRZAW Mean % Injury (TRZAW; DFFP 70 g ae/ha alone (dicamba 0)): 8.8%

COc1c(Cl)ccc(Cl)c1C(=O)O [Dicamba, 3,6-dichloro-2-methoxybenzoic acid]
Mean % Control AMAPA ([7]; dicamba 140 g ae/ha): 80.0% | Mean % Control AMAPA ([7]; dicamba 280 g ae/ha): 96.3% | Mean % Control CHEAL ([8]; dicamba 140 g ae/ha): 86.3% | Mean % Control CHEAL ([8]; dicamba 280 g ae/ha): 98.5% | Mean % Control ABUTH ([9]; dicamba 140 g ae/ha): 65.0% | Mean % Control ABUTH ([9]; dicamba 280 g ae/ha): 91.3% | ABUTH I50 (amount of dicamba for 50% injury) (ABUTH; 11 DAT): 80.2 g ae/ha | ABUTH Fold-increase of dicamba activity = I50 (-NPA)/I50(+NPA) (ABUTH): 1.0 | CHEAL I50 (amount of dicamba for 50% injury) (CHEAL; 11 DAT): 35.2 g ae/ha | CHEAL Fold-increase of dicamba activity = I50 (-NPA)/I50(+NPA) (CHEAL): 1.0 | TRZAW Mean % Injury ([4]; dicamba alone 5.6 g ae/ha): 0% | TRZAW Mean % Injury ([4]; dicamba alone 17.7 g ae/ha): 0% | TRZAW Mean % Injury ([4]; dicamba alone 56.0 g ae/ha): 0% | TRZAW Mean % Injury ([4]; dicamba alone 177.0 g ae/ha): 0% | TRZAW Mean % Injury ([4]; dicamba alone 560.0 g ae/ha): 76.3% | LOLPE Mean % Injury ([5]; dicamba alone 28.0 g ae/ha): 0 e % | LOLPE Mean % Injury ([5]; dicamba alone 88.5 g ae/ha): 0 e % | LOLPE Mean % Injury ([5]; dicamba alone 280 g ae/ha): 0 e % | LOLPE Mean % Injury ([5]; dicamba alone 885 g ae/ha): 0 e % | LOLPE Mean % Injury ([5]; dicamba alone 2800 g ae/ha): 7.5 de % | FESAR Mean % Injury ([6]; dicamba alone 28.0 g ae/ha): 0 c % | FESAR Mean % Injury ([6]; dicamba alone 88.5 g ae/ha): 2.5 c % | FESAR Mean % Injury ([6]; dicamba alone 280 g ae/ha): 5.0 c % | FESAR Mean % Injury ([6]; dicamba alone 885 g ae/ha): 7.5 c % | FESAR Mean % Injury ([6]; dicamba alone 2800 g ae/ha): 32.5 b % | TRZAW Mean % Injury (TRZAW; dicamba alone 14.0 g ae/ha): 0% | TRZAW Mean % Injury (TRZAW; dicamba alone 44.0 g ae/ha): 2.5% | TRZAW Mean % Injury (TRZAW; dicamba alone 140 g ae/ha): 5.0% | TRZAW Mean % Injury (TRZAW; dicamba alone 440 g ae/ha): 25.0% | TRZAW Mean % Injury (TRZAW; dicamba alone 1400 g ae/ha): 50.0%

O=C(O)c1ccccc1C(=O)Nc1cccc2ccccc12 [Naptalam, N-1-naphthylphthalamic acid]
Mean % Control AMAPA ([7]; naptalam 56 g ae/ha): 18.8% | Mean % Control CHEAL ([8]; naptalam 56 g ae/ha): 0% | Mean % Control ABUTH ([9]; naptalam 56 g ae/ha): 0% | TRZAW Mean % Injury ([4]; naptalam 224 g ae/ha alone (dicamba 0)): 0% | LOLPE Mean % Injury [5, 12]: 0 e % | FESAR Mean % Injury [6, 12]: 0 c % | TRZAW Mean % Injury (TRZAW; naptalam 70 g ae/ha alone (dicamba 0)): 0% | Mean % Control (10 DAT) AMARE ([1]; naptalam 140 g ae/ha): 0% | Mean % Control (10 DAT) CHEAL ([2]; naptalam 140 g ae/ha): 5% | Mean % Control (10 DAT) HELSS [10]: 12% | Mean % Control (10 DAT) HELSS ([3]; naptalam 56 g ae/ha): 10%

Nc1c(Cl)c(Cl)nc(C(=O)O)c1Cl [Picloram, picloram]
Mean % Control (10 DAT) AMARE ([1]; picloram 5.6 g ae/ha): 43% | Mean % Control (10 DAT) CHEAL ([2]; picloram 5.6 g ae/ha): 43%
